Reference: patent publication US9446122B2, “Use of GK-1 peptide expressed on M13 filamentous phage as pharmaceutical ingredient to enhance the efficiency of the immune response induced by vaccine or pathogen antigens” (UNIVERSIDAD NACIONAL AUTONOMA DE MEXICO, priority 2011, dated 2016)

Experiments:
[1] = tested on: immune response elicited by intranasally administered influenza vaccine; experiment: Serum IgG after intranasal immunization, FGK-1 versus synthetic GK-1 (Example 5); type: in vivo, female BALB/cAnN mice
Experimental: The following treatment schedules were administered to five-mouse groups:
(§1) Influenza vaccine was administered at a dose of 1 μg/mouse [A/New Caledonia/20/99(H1N1) strain, A/Panama/2007/99(H3N2) strain (analog to A/Moscow/10/99 strain), and B/Victoria/504/2000 strain (analog to B/Sichuan/379/99 strain)]. FLUZONE® vaccine for the flu season 2004-2005, containing 45 μg of hemagglutinin HA per 0.5 ml-dose, was used.
(§2) Synthetic GK-1 peptide was used at its optimal dose (Segura-Velźquez et al. 2006), in a 10 μg/mouse concentration.
Mice were administered intranasally one single dose of each immunogen, and the induced response was evaluated in serum and bronchoalveolar lavages in different times after immunization, namely 21 and 45 days. Sera were obtained from peripheral blood, centrifuged at 5,000 rpm by 12 min, and aliquots were frozen until analysis. Bronchoalveolar lavages were obtained by performing intratracheal lavages with 300 μl of saline solution 45 days after immunization.

[2] = tested on: immune response elicited by influenza vaccine; experiment: Serum IgG after subcutaneous immunization, FGK-1 versus synthetic GK-1 (Example 4); type: in vivo, female BALB/cAnN mice; conditions: younger mice
Experimental: The following treatment schedules were assessed for five-mouse groups:
as §1, §2
Mice received a single dose of each immunogen by subcutaneous route at the tail base, and the induced response was evaluated in serum 21 days after immunization. Sera were obtained from peripheral blood, centrifuged at 5,000 rpm by 12 min, and aliquots were frozen until analysis.

Substance: G-Y-Y-Y-P-S-D-P-N-T-F-Y-A-P-P-Y-S-A (GYYYPSDPNTFYAPPYSA) [synthetic GK-1 peptide, 18-amino acid peptide derived from a Taenia solium cysticerci cDNA library]
- potentiation of influenza vaccine by intranasal administration [1]: does not potentiate the vaccine
- antibody levels versus vaccine alone ([2]; co-administered with influenza vaccine): does not increase antibody levels
- antibody response versus influenza vaccine alone ([2]; subcutaneous, 21 days): slightly higher antibody response
